Reference: patent US9308214B2, “Method for moderately increasing the proton conductivity of biological membranes with the aid of mitochondria-targeted delocalized cations” (MITOTECH S.A., priority 2008, dated 2016)

Key:
[1] = Protonophore activity on black membrane model (diffusion potential on lipid bilayer); settings: C12-TPP 1 μM in both compartments; ΔpH=1 by KOH; palmitic acid 1 mg/ml in membrane vs absent; pH 7.5
Experimental: To test penetrating ability of mitochondria-targeted compounds of structure (I), a method based on the ability of ions to penetrate through the bilayer phospholipid membrane moving along concentration gradient was used. The two chambers filled with an aqueous solution are separated by the bilayer membrane, the compound tested is added to one of the chambers. If a charged compound is capable of penetrating through the bilayer membrane, fast diffusion of the compound from the chamber with its high concentration to the chamber with its low concentration occurs, thus difference in the potentials is formed on the membrane. For ions carrying one charge and capable of passive penetrating through the membrane, the 10-fold concentration gradient allows to produce the potential of 60 mV (according to the Nernst equation).
This method was used in various studies on the ability of ions to penetrate through a bilipid membrane and is described in Starkov, et al. (1997) Biochem. Biophys. Acta, 1318:159-172. With this method, C12-TPP (compound of structure (I)) was tested.
Experiments were carried out in a Teflon cuvette having two compartments, and in a 0.6-mm hole between the two compartments the membrane was formed. Medium contained 50 mM Tris-HCl, 100 mM KCl, pH=7.5. ΔpH=1 was created by adding KOH to one of the cuvette compartments. […]

[2] = system: yeast Saccharomyces cerevisiae; assay: Programmed death in yeast induced by amiodarone (colony survival); type: cell-based; settings: 80 μM amiodarone; for survival of yeast cells (protective effect, in words): TPP tested from 100 nM to 400 nM; for survival of yeast cells: 1 hr at 30° C., survival without compound 2 percent, 3 independent experiments, p below 0.05
Excerpt: Amiodarone (a calcium channel blocker) causes the death of the yeast Saccharomyces cerevisiae which by a number of features resembles apoptosis in higher eukaryotes. In the cells, amiodarone induces activation of a cascade of events leading to formation of reactive oxygen species and subsequent cell death. […] A source of formation of reactive oxygen species induced by amiodarone is a hyperpolarized mitochondrium.
The following compounds of structure (I) (SKQ1, SKQ3, and C12TPP) were selected for this study. […] Then a compound of structure (I) or mock and 80 μM amiodarone were added to the cell suspension. Cells were incubated for 1 hr at 30° C. and afterwards transferred to solid YPD medium containing 2% bactoagar. The number of colonies was counted after 2 days of incubation on solid medium. 100% survival corresponds to the number of colonies from zero time-point transferred to solid medium prior to addition of amiodarone.

[3] = Fluorescence correlation spectroscopy of SkQR1 micelles in aqueous solution with fatty acid (stearate); type: physicochemical
Experimental: Fluorescence correlation spectroscopy (FCS) is often used to study micellization of surfactants. In one report (Lu, et al. (2006) Analytica Chimica Acta, 556:216-225), R18, i.e., rhodamine with covalently attached fat tail was used as a marker. R18 itself forms large and poorly fluorescent aggregates in aqueous solution resulting in a small number of particles in the confocal volume (N) and a small fluorescence signal. When a detergent was added at a concentration above its CMC (the critical micelle concentration), an increase in total fluorescence and a significant increase in the number of particles N occurred. […] That was associated with lower diffusion coefficient of detergent micelles as compared to the R18 aggregates.
FIGS. 6A and B show the effect of a fatty acid (stearate) on the autocorrelation function of SkQR1 in water. […] For example, the number of particles in the confocal volume sharply increases. The constant of micelle formation for stearate is about 0.3 mM. In this case, fragmentation of the SkQR1 aggregates induced by such low concentrations of the fatty acid occurs. This fragmentation decreases the degree of the self-quenching of fluorescence that increases the total signal. […] The constant of micelle formation for anionic surfactants decreases under the influence of cationic surfactants or polymers. In that case, the total fluorescence signal was 141 kHz. […] The total fluorescence signal was 63 kHz that points to the beginning of the self-quenching of the dye in the micelles.
The fluctuations of the fluorescence signal in this case have no diffusion component yet. This process may be the output/input of SkQR1 molecules from water into micelles that can lead to fluctuations of the fluorescence due to the different quantum yield of fluorescence of the dye in polar and non-polar environments (Zettl, et al. (2005) J. Phys. Chem. B. 109:13397-13401).

CCCCCCCCCCCC[P+](c1ccccc1)(c1ccccc1)c1ccccc1 [C12-TPP, dodecyl triphenylphosphonium]
diffusion potential (ΔΨ) in response to ΔpH creation [1]: presence of a fatty acid in the membrane facilitates an increase in diffusion potential | survival of yeast cells (protective effect, in words) [2]: even more effective than the tested antioxidants | optimum concentration of the protective effect ([2]; pronounced concentration dependence): 200 nM

COc1c(O)c(C)c(CCCCCCCCCC[P+](c2ccccc2)(c2ccccc2)c2ccccc2)c(O)c1OC [MitoQ]
survival of yeast cells [2]: 8%

Cc1c(C)c(O)c(CCCCCCCCCC[P+](c2ccccc2)(c2ccccc2)c2ccccc2)c(C)c1O [SkQ3]
survival of yeast cells (protective effect, in words) [2]: significantly increase the survival

Cc1c(O)cc(CCCCCCCCCC[P+](c2ccccc2)(c2ccccc2)c2ccccc2)c(O)c1C [SkQ1]
survival of yeast cells (protective effect, in words) [2]: significantly increase the survival

CC/N=c1/cc2oc3cc(NCC)c(C)cc3c(-c3ccccc3C(=O)OCCCCCCCCCCC3=CC(=O)C(C)=C(C)C3=O)c-2cc1C [SkQR1]
fluorescence signal from the sample ([3]; 1.5 μg/ml (about 5 μM) stearate): 67 kHz | aggregation state in aqueous solution ([3]; aggregates degrade in presence of low concentrations of fatty acids): forms micelles (or large aggregates) in aqueous solution | total fluorescence signal ([3]; further increase in concentration of stearate (above 50 μM)): 63 kHz | fluorescence signal from the sample ([3]; in water, absence of stearate): 44 kHz | total fluorescence signal ([3]; stearate up to 50 μM): 141 kHz | survival of yeast cells [2]: 7%
